Measured values: patent US9796711B2, “Substituted pyrazolo[3,4-b]pyridin-6-carboxylic acids and method of use” (AbbVie S.àr.l., priority 2015, dated 2017)
pEC50: −log10 of the molar value.

What was measured:
ΔF508-CFTR [1] = target: T1, ΔF508-CFTR (Homo sapiens, UniProt P13569, DEL508-508); test: CFTR cell surface levels using HRP-tagged ΔF508-CFTR expressing CFBE cells, in the presence of a co-corrector; type: cell-based; conditions: HRP-tagged ΔF508-CFTR expressing CFBE cells, in the presence of 3 μM co-corrector; for pEC50: read-out: EC50
T1 construct: host or cells: CFBE41o-, doxycycline-inducible
Procedure, shortened: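 Cells were seeded with 0.5 μg/mL doxycycline and held 68 h at 37 °C. Test compounds plus 3 μM co-corrector (final 0.1% DMSO) were then added for 20 h at 33 °C. Washed cells received HRP substrate, and luminescence was normalized between DMSO and 3 μM co-corrector controls.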

ΔF508-CFTR [2] = target: T1, ΔF508-CFTR; test: CFTR cell surface levels using HRP-tagged ΔF508-CFTR expressing CFBE cells, intrinsic corrector capacity; type: cell-based; conditions: for pEC50: read-out: EC50
Procedure, shortened: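 Here the cells express ΔF508-CFTR with horseradish peroxidase inserted in extracellular loop 4, so only rescued channel at the surface gives luminescent signal. Compounds act on their own, 20 h at the reduced temperature of 33 °C; values are percent activity relative to DMSO and a 3 μM corrector.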

[3] = HRP-tagged ΔF508-CFTR expressing CFBE cells, intrinsic corrector capacity (no co-corrector), 33° C., 20 hours
[4] = HRP-tagged ΔF508-CFTR CFBE41o- cells, compounds alone (intrinsic corrector capacity), 20 hours at 33° C., positive control 3 μM corrector
[5] = HRP-tagged ΔF508-CFTR CFBE41o- cells, compounds alone (intrinsic corrector capacity), 20 hours at 33° C.
[6] = HRP-tagged ΔF508-CFTR CFBE cells, compound alone (intrinsic corrector capacity), 20 hours at 33° C.

T1 sequence (P13569 with tags, fused parts or gaps DEL508-508): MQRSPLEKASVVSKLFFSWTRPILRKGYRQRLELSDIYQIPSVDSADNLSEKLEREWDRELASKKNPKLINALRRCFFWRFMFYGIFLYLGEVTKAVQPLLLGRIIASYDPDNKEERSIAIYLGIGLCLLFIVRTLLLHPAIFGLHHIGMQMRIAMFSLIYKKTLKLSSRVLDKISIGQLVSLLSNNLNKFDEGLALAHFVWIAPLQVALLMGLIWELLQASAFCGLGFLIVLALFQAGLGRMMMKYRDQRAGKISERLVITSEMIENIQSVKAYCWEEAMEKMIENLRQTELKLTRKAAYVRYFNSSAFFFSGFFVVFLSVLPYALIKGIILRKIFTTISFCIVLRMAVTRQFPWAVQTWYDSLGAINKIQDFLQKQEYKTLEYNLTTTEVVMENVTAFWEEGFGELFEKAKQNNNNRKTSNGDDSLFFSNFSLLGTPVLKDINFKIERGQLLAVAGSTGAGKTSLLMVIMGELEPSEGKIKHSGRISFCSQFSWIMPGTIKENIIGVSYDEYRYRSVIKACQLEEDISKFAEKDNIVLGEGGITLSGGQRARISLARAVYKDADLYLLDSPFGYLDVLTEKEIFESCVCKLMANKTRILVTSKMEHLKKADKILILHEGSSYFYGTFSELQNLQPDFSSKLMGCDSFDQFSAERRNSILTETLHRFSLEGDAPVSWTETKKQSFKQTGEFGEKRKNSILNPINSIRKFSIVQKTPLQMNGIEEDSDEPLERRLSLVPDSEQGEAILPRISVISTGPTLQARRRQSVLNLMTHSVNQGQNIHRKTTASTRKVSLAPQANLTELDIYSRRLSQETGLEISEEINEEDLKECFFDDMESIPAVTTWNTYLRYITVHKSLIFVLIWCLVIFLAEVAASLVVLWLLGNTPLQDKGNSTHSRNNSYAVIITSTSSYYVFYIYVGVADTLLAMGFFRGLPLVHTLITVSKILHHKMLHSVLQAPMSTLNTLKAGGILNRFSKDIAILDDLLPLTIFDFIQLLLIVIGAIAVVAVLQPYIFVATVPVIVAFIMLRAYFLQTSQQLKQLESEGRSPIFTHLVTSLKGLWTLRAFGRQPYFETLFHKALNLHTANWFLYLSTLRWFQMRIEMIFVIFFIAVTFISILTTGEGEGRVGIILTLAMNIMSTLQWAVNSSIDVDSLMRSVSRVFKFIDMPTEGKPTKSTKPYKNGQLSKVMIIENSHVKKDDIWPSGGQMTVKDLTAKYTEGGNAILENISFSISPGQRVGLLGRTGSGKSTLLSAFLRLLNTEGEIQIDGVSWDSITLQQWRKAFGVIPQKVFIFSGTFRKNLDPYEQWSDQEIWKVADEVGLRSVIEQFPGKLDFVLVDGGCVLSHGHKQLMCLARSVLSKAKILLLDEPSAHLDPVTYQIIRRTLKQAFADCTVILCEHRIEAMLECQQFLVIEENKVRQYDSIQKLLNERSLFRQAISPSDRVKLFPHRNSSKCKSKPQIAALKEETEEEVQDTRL

CO[C@H]1C[C@@H](c2nn(-c3ccccc3)c3nc(C(=O)O)cc(-c4ccc(N5CCC(C#N)CC5)nc4)c32)C1 [compound 421, 4-[6-(4-cyanopiperidin-1-yl)pyridin-3-yl]-3-(cis-3-methoxycyclobutyl)-1-phenyl-1H-pyrazolo[3,4-b]pyridine-6-carboxylic acid]
% Activation (ΔF508-CFTR [1]): 368.65%
pEC50 (ΔF508-CFTR [1]): 6.14
% Activation (ΔF508-CFTR [2]; [3]): 184.4%
pEC50 (ΔF508-CFTR [2]; [3]): 5.89

Cc1nn(-c2ccccc2)c2nc(C(=O)O)cc(N3CCC(N4CCOCC4)CC3)c12 [compound 324, 3-methyl-4-[4-(morpholin-4-yl)piperidin-1-yl]-1-phenyl-1H-pyrazolo[3,4-b]pyridine-6-carboxylic acid]
% Activation (ΔF508-CFTR [1]): 279.1%
pEC50 (ΔF508-CFTR [1]): 5.60
% Activation (ΔF508-CFTR [2]; [4]): 93.32%
pEC50 (ΔF508-CFTR [2]; [5]): 5.60

O=C(O)c1cc(N2CC3(CCC3)C2)c2c(C3CCC3)nn(-c3ccccc3)c2n1 [compound 426, 4-(2-azaspiro[3.3]heptan-2-yl)-3-cyclobutyl-1-phenyl-1H-pyrazolo[3,4-b]pyridine-6-carboxylic acid]
% Activation (ΔF508-CFTR [1]): 253.5%
pEC50 (ΔF508-CFTR [1]): 6.05
% Activation (ΔF508-CFTR [2]; [3]): 76.06%
pEC50 (ΔF508-CFTR [2]; [3]): 6.00

Cc1nn(-c2ccccc2)c2nc(C(=O)O)cc(C(=O)N3CCCCC3)c12 [compound 158, 3-methyl-1-phenyl-4-(piperidine-1-carbonyl)-1H-pyrazolo[3,4-b]pyridine-6-carboxylic acid]
% Activation (ΔF508-CFTR [1]): 112.2%
pEC50 (ΔF508-CFTR [1]): < 5.00
% Activation (ΔF508-CFTR [2]; [4]): 1.521%
pEC50 (ΔF508-CFTR [2]; [5]): < 5.00

Cc1nn(-c2ccccc2)c2nc(C(=O)O)cc(N3CCCC4(CC4)C3)c12 [compound 310, 4-(5-azaspiro[2.5]octan-5-yl)-3-methyl-1-phenyl-1H-pyrazolo[3,4-b]pyridine-6-carboxylic acid]
% Activation (ΔF508-CFTR [1]): 199.65%
pEC50 (ΔF508-CFTR [1]): 5.79
% Activation (ΔF508-CFTR [2]; [4]): 88.73%
pEC50 (ΔF508-CFTR [2]; [5]): 5.72

O=C(O)c1cc(OC2CCOCC2)c2c(C3CCC3)nn(-c3ccccc3)c2n1 [compound 579, 3-cyclobutyl-4-[(oxan-4-yl)oxy]-1-phenyl-1H-pyrazolo[3,4-b]pyridine-6-carboxylic acid]
% Activation (ΔF508-CFTR [1]): 263.5%
pEC50 (ΔF508-CFTR [1]): 6.57
% Activation (ΔF508-CFTR [2]; [3]): 97.37%
pEC50 (ΔF508-CFTR [2]; [3]): 6.62

CC(C)Oc1nn(C2CCCCC2)c2nc(C(=O)O)cc(-c3ccc(C#N)cc3)c12 [compound 923, 4-(4-cyanophenyl)-1-cyclohexyl-3-[(propan-2-yl)oxy]-1H-pyrazolo[3,4-b]pyridine-6-carboxylic acid]
% Activation (ΔF508-CFTR [1]): 263%
pEC50 (ΔF508-CFTR [1]): 6.42
% Activation (ΔF508-CFTR [2]; [6]): 60.466%
pEC50 (ΔF508-CFTR [2]; [6]): 6.45

Cc1nn(-c2cccc(N3CCOCC3)c2)c2nc(C(=O)O)cc(-c3ccc(N4CCOCC4)cc3)c12 [compound 32, 3-methyl-1-[3-(morpholin-4-yl)phenyl]-4-[4-(morpholin-4-yl)phenyl]-1H-pyrazolo[3,4-b]pyridine-6-carboxylic acid]
% Activation (ΔF508-CFTR [1]): 399.6%
pEC50 (ΔF508-CFTR [1]): 5.86
% Activation (ΔF508-CFTR [2]; [4]): 176.7%
pEC50 (ΔF508-CFTR [2]; [5]): 6.20

CC(C)c1nn(-c2cccc(N3CCOCC3)c2)c2nc(C(=O)O)cc(-c3ccc(N4CCOCC4)cc3)c12 [compound 121, 1-[3-(morpholin-4-yl)phenyl]-4-[4-(morpholin-4-yl)phenyl]-3-(propan-2-yl)-1H-pyrazolo[3,4-b]pyridine-6-carboxylic acid]
% Activation (ΔF508-CFTR [1]): 603.1%
pEC50 (ΔF508-CFTR [1]): 6.12
% Activation (ΔF508-CFTR [2]; [4]): 401.5%
pEC50 (ΔF508-CFTR [2]; [5]): 6.28

Cc1nn(-c2ccccc2)c2nc(C(=O)O)cc(-c3ccc(N4CCCC(O)C4)cc3)c12 (centres unmarked) [compound 198, 4-[4-(3-hydroxypiperidin-1-yl)phenyl]-3-methyl-1-phenyl-1H-pyrazolo[3,4-b]pyridine-6-carboxylic acid]
% Activation (ΔF508-CFTR [1]): 364%
pEC50 (ΔF508-CFTR [1]): 5.99
% Activation (ΔF508-CFTR [2]; [4]): 220%
pEC50 (ΔF508-CFTR [2]; [5]): 5.95

CC(C)c1nn(-c2ccc(F)cc2)c2nc(C(=O)O)cc(N3CCCC(C(F)F)C3)c12 (centres unmarked) [compound 399, 4-[3-(difluoromethyl)piperidin-1-yl]-1-(4-fluorophenyl)-3-(propan-2-yl)-1H-pyrazolo[3,4-b]pyridine-6-carboxylic acid]
% Activation (ΔF508-CFTR [1]): 336.55%
pEC50 (ΔF508-CFTR [1]): 6.32
% Activation (ΔF508-CFTR [2]; [3]): 137.6%
pEC50 (ΔF508-CFTR [2]; [3]): 6.08

CC(C)c1nn(-c2ccc(F)c(F)c2)c2nc(C(=O)O)cc(-c3ccc(N4CCC(C#N)CC4)nc3)c12 [compound 279, 4-[6-(4-cyanopiperidin-1-yl)pyridin-3-yl]-1-(3,4-difluorophenyl)-3-(propan-2-yl)-1H-pyrazolo[3,4-b]pyridine-6-carboxylic acid]
% Activation (ΔF508-CFTR [1]): 427.65%
pEC50 (ΔF508-CFTR [1]): 6.30
% Activation (ΔF508-CFTR [2]; [4]): 257.8%
pEC50 (ΔF508-CFTR [2]; [5]): 6.05

CC(C)Oc1cc(-n2nc(C3CCC3)c3c(N4CCC(N5CCOCC5)CC4)cc(C(=O)O)nc32)ccn1 [compound 855, 3-cyclobutyl-4-[4-(morpholin-4-yl)piperidin-1-yl]-1-{2-[(propan-2-yl)oxy]pyridin-4-yl}-1H-pyrazolo[3,4-b]pyridine-6-carboxylic acid]
% Activation (ΔF508-CFTR [1]): 490.9%
pEC50 (ΔF508-CFTR [1]): 7.06
% Activation (ΔF508-CFTR [2]; [3]): 304.2%
pEC50 (ΔF508-CFTR [2]; [3]): 6.70

CC(C)c1nn(-c2ccc(F)cc2)c2nc(C(=O)O)cc(N3CCC(C)(N4CCCCC4)CC3)c12 [compound 784, 1-(4-fluorophenyl)-4-(4′-methyl [1,4′-bipiperidin]-1′-yl)-3-(propan-2-yl)-1H-pyrazolo[3,4-b]pyridine-6-carboxylic acid]
% Activation (ΔF508-CFTR [1]): 225.6%
pEC50 (ΔF508-CFTR [1]): 5.78
% Activation (ΔF508-CFTR [2]; [3]): 38.94%
pEC50 (ΔF508-CFTR [2]; [3]): 5.91

C[C@@H](CN(C)C)Oc1cc(C(=O)O)nc2c1c(C1CCC1)nn2-c1ccccc1 [compound 615, 3-cyclobutyl-4-{[(2S)-1-(dimethylamino)propan-2-yl]oxy}-1-phenyl-1H-pyrazolo[3,4-b]pyridine-6-carboxylic acid]
% Activation (ΔF508-CFTR [1]): 216.65%
pEC50 (ΔF508-CFTR [1]): 5.63
% Activation (ΔF508-CFTR [2]; [3]): 44.6%
pEC50 (ΔF508-CFTR [2]; [3]): 5.48

N#CC1CCN(c2ccc(-c3cc(C(=O)O)nc4c3c(C3CCC3)nn4-c3cccc(N4CCCC4)c3)cn2)CC1 [compound 248]
% Activation (ΔF508-CFTR [1]): 606.83%
pEC50 (ΔF508-CFTR [1]): 6.37
% Activation (ΔF508-CFTR [2]; [4]): 405.93%
pEC50 (ΔF508-CFTR [2]; [5]): 6.26

Cc1cccc(-n2nc(C3CCC3)c3c(N4CCC(N5CCOCC5)CC4)cc(C(=O)O)nc32)c1 [compound 820, 3-cyclobutyl-1-(3-methylphenyl)-4-[4-(morpholin-4-yl)piperidin-1-yl]-1H-pyrazolo[3,4-b]pyridine-6-carboxylic acid]
% Activation (ΔF508-CFTR [1]): 499.75%
pEC50 (ΔF508-CFTR [1]): 6.91
% Activation (ΔF508-CFTR [2]; [3]): 351.3%
pEC50 (ΔF508-CFTR [2]; [3]): 6.55

Cc1nn(-c2ccccc2)c2nc(C(=O)O)cc(N3CCC(C(=O)N4CCCC4)CC3)c12 [compound 305, 3-methyl-1-phenyl-4-[4-(pyrrolidine-1-carbonyl)piperidin-1-yl]-1H-pyrazolo[3,4-b]pyridine-6-carboxylic acid]
% Activation (ΔF508-CFTR [1]): 170.5%
pEC50 (ΔF508-CFTR [1]): 5.84
% Activation (ΔF508-CFTR [2]; [4]): 29.97%
pEC50 (ΔF508-CFTR [2]; [5]): 5.51

O=C(O)c1cc(OCCC2CCOCC2)c2c(C3CCC3)nn(-c3ccccc3)c2n1 [compound 414, 3-cyclobutyl-4-[2-(oxan-4-yl)ethoxy]-1-phenyl-1H-pyrazolo[3,4-b]pyridine-6-carboxylic acid]
% Activation (ΔF508-CFTR [1]): 295.15%
pEC50 (ΔF508-CFTR [1]): 6.43
% Activation (ΔF508-CFTR [2]; [3]): 120.3%
pEC50 (ΔF508-CFTR [2]; [3]): 6.16

CN(c1ncc(-c2cc(C(=O)O)nc3c2c(C2CCC2)nn3-c2cccc(N3CCCC3)c2)cn1)C1CCOCC1 [compound 277, 3-cyclobutyl-4-{2-[methyl(oxan-4-yl)amino]pyrimidin-5-yl}-1-[3-(pyrrolidin-1-yl)phenyl]-1H-pyrazolo[3,4-b]pyridine-6-carboxylic acid]
% Activation (ΔF508-CFTR [1]): 608.57%
pEC50 (ΔF508-CFTR [1]): 6.29
% Activation (ΔF508-CFTR [2]; [4]): 356.47%
pEC50 (ΔF508-CFTR [2]; [5]): 6.29

Cc1nn(-c2ccccc2)c2nc(C(=O)O)cc(-c3ccc(N4C[C@@H]5C[C@H]4CO5)cc3)c12 [compound 127, 3-methyl-4-{4-[(1S,4S)-2-oxa-5-azabicyclo[2.2.1]heptan-5-yl]phenyl}-1-phenyl-1H-pyrazolo[3,4-b]pyridine-6-carboxylic acid]
% Activation (ΔF508-CFTR [1]): 401.3%
pEC50 (ΔF508-CFTR [1]): 6.14
% Activation (ΔF508-CFTR [2]; [4]): 221.4%
pEC50 (ΔF508-CFTR [2]; [5]): 5.75

Cc1nn(-c2ccccc2)c2nc(C(=O)O)cc(-c3ccc(N(C)C4CCOCC4)nc3)c12 [compound 168, 3-methyl-4-{6-[methyl(oxan-4-yl)amino]pyridin-3-yl}-1-phenyl-1H-pyrazolo[3,4-b]pyridine-6-carboxylic acid]
% Activation (ΔF508-CFTR [1]): 379.07%
pEC50 (ΔF508-CFTR [1]): 6.16
% Activation (ΔF508-CFTR [2]; [4]): 190.23%
pEC50 (ΔF508-CFTR [2]; [5]): 5.89

Cc1nn(-c2ccccc2)c2nc(C(=O)O)cc(N3CCCN(S(C)(=O)=O)CC3)c12 [compound 320, 4-[4-(methanesulfonyl)-1,4-diazepan-1-yl]-3-methyl-1-phenyl-1H-pyrazolo[3,4-b]pyridine-6-carboxylic acid]
% Activation (ΔF508-CFTR [1]): 166.3%
pEC50 (ΔF508-CFTR [1]): 5.48
% Activation (ΔF508-CFTR [2]; [4]): 19.37%
pEC50 (ΔF508-CFTR [2]; [5]): < 5.00
